Results on four molecules are retold here after paper PMC9503898, “Synthesis and Evaluation of Two Long-Acting SSTR2 Antagonists for Radionuclide Therapy of Neuroendocrine Tumors” (Pharmaceuticals, 2022).

Data set [1] concerns the target T1, SSTR2 receptor (U2OS-SSTR2 cells) (Homo sapiens, UniProt P30874).
T1 construct: expressed in transfected cells; host or cells: U2OS human osteosarcoma cells stably expressing SSTR2
Description: Competitive binding assay against [^177Lu]Lu-JR11. Conditions: radioligand [^177Lu]Lu-JR11 10^−9 M, unlabeled compound 10^−12 to 10^−5 M, 90 min, 37 °C, triplicate. As to the method:
Human osteosarcoma cells (U2OS) stably expressing the SSTR2 receptor were used in all in vitro cell assays. Cells were cultured in Dulbecco’s modified Eagle’s medium (DMEM) from Gibco (Paisley, UK) supplemented with 2 mM L-glutamine, 10% fetal bovine serum (FBS), 50 units/mL penicillin, and 50 μg/mL streptomycin (Sigma Aldrich; Haarlerbergweg, The Netherlands) and maintained at 37 °C and in a 5% CO2 humidified chamber. Passages were performed weekly using trypsin/EDTA (0.05%/0.02% w/v).
Competitive binding experiments against [^177Lu]Lu-JR11 were performed with 8a and 8b in U2OS-SSTR2 cells. Cells were seeded in a 24-well plate 24 h in advance (2 × 10^5 cells/well). On the day of the experiment, medium was removed, and the cells were washed once with PBS (Gibco). Then, solutions containing unlabeled compound 8a or 8b in increasing concentrations (10^−12 to 10^−5 M) in internalization medium (DMEM media, 20 mM HEPES, 1% BSA, pH 7.4) were added, followed by the addition of [^177Lu]Lu-JR11 (10^−9 M). For each concentration, experiments were performed in triplicate. Cells were incubated at 37 °C for 90 min. After incubation, medium was removed, and cells were washed once with PBS and lysed with 0.5 M sodium hydroxide (NaOH) for 10 min at rt. The lysate was transferred to counting tubes, and measurement was performed using the γ-counter.

A further data set can be described thus: Stability in PBS. The format is physicochemical. Conditions: % intact radiolabeled ligand, ~3 MBq in PBS (300 μL), 37 °C, radio-HPLC, n = 1. On the procedure:
(§1) The ^177Lu-labeled compounds (~3 MBq) were incubated in PBS (300 μL) at 37 °C. The stability of the radiolabeled peptides was verified by radio-HPLC at 1, 4, and 24 h. The stability in serum was determined by incubating the radiolabeled compounds (~3 MBq) into 150 μL of mouse serum (Merck; Haarlerbergweg, The Netherlands) at 37 °C. At 1, 4, and 24 h post-incubation, the proteins were precipitated by adding an aliquot of 35 μL of the mixture to an equal volume of ACN. The vial was vortexed and centrifuged for 20 min. stability was monitored by radio-HPLC (Figures S4 and S5).

Another data set in a line: Stability in mouse serum. The format is in vitro ADME. Conditions: % intact radiolabeled ligand, ~3 MBq in 150 μL mouse serum, 37 °C, ACN protein precipitation, radio-HPLC, n = 1. As to the method: as §1
A short description of data set [2]: Determination of lipophilicity (LogD7.4, shake-flask). It counts as physicochemical. The note with it: n-octanol/PBS (1:1), pH 7.4, PBS/n-octanol 1:1 (1 mL), ~1.5 MBq, gamma counter, n = 3 (triplicate), mean ± SEM, read-out: Log D7.4. On the procedure: The distribution coefficient (LogD7.4) of the ^177Lu-labeled peptides was determined by the shake-flask method. For each radioligand, the experiment was performed in triplicate. The radiolabeled compound (~1.5 MBq) was added to a solution of phosphate buffered saline (PBS)/n-octanol (1 mL, v:v = 1:1) in eppendorf vials. The vials were vortexed vigorously and centrifuged at 10,000 rpm for 3 min. The n-octanol phase was separated from the aqueous phase, poured into new vials, and centrifuged for 15 min. Samples from each phase (10 μL) were measured using a gamma counter. The LogD7.4 value was calculated using the following equation: […].

Another data set in a line: In vivo SPECT/CT imaging. Conditions: mouse, H69 xenograft tumor, iv, 20 MBq/0.5 nmol per animal, total radioactivity.
The test system of data set [3] is mice bearing SSTR2-positive H69 xenografts. Description: In vivo SPECT/CT imaging. Conditions: H69 xenograft mice, i.v. 20 MBq/0.5 nmol, n = 4.
The target of another data set is human albumin (Homo sapiens, UniProt P02768). Nature of the data set: Albumin binding properties (ultrafiltration). The note with it: ~1 MBq in human albumin/PBS (500 µL, v:v = 1:4), 1 h, 37 °C; Centrifree ultrafiltration 30 KDa; gamma counter; n = 3, mean ± SEM.

Positions of bridges follow the written chain, without caps; N, C: chain ends. Non-standard residues stand in square brackets, D forms with d. Residues, ends and D or L forms follow the SMILES beside them. *: point of attachment. DOTA = O=C(O)CN1CCN(CC(=O)O)CCN(CC(=O)*)CCN(CC(=O)O)CC1; dPhe(4-NHCONH2) = NC(=O)Nc1ccc(C[C@@H](N)C(=O)O)cc1; Butanoyl(4-(4-MeO-phenyl)) = COc1ccc(CCCC(=O)*)cc1; Butanoyl(4-(4-I-phenyl)) = O=C(CCCc1ccc(I)cc1)*; Dihydroorotyl(S) = O=C1C[C@@H](C(=O)*)NC(=O)N1; Phe(4-Cl) = N[C@@H](Cc1ccc(Cl)cc1)C(=O)O; Phe(4-NH2) = Nc1ccc(C[C@H](N)C(=O)O)cc1

T1 sequence (P30874 whole entry): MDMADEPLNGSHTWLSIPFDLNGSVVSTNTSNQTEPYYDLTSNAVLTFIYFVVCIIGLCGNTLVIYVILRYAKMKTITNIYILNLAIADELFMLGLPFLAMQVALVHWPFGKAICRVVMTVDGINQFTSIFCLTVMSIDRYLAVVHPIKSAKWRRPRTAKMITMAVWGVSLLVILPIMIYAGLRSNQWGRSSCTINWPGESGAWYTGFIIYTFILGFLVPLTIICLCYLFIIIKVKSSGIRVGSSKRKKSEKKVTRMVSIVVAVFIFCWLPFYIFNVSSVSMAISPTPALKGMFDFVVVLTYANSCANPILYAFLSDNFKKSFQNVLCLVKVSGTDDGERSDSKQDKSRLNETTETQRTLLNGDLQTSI
Chain of human albumin (P02768 25-609): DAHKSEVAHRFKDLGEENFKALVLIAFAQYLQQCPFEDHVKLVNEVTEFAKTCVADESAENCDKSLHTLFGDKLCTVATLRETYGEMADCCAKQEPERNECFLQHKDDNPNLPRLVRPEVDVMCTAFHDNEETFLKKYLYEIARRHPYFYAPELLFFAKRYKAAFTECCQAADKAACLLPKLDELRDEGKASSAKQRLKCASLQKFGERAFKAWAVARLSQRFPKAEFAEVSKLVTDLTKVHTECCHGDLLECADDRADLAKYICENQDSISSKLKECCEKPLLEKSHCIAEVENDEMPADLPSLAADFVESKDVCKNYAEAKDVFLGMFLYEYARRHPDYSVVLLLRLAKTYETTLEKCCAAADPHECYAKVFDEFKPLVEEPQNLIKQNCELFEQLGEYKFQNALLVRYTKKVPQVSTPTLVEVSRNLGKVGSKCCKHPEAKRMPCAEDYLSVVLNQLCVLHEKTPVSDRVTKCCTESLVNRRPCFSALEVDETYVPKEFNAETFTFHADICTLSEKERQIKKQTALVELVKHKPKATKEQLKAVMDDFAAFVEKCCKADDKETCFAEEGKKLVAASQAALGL

What is called IC50 is the midpoint of a concentration-inhibition curve. Read a low IC50 as greater potency in that assay. In the case of `C[C@@H](O)[C@@H]1NC(=O)[C@H](CCCCN)NC(=O)[C@@H](Cc2ccc(NC(N)=O)cc2)NC(=O)[C@H](Cc2ccc(NC(=O)[C@@H]3CC(=O)NC(=O)N3)cc2)NC(=O)[C@H](NC(=O)[C@H](Cc2ccc(Cl)cc2)NC(=O)[C@H](CCCCNC(=O)CCCc2ccc(I)cc2)NC(=O)CN2CCN(CC(=O)O)CCN(CC(=O)O)CCN(CC(=O)O)CC2)CSSC[C@@H](C(=O)N[C@H](Cc2ccc(O)cc2)C(N)=O)NC1=O` [8a, DOTA-Lys(4-(p-iodophenyl)butyryl)-Phe(4-Cl)-c[D-Cys-Aph(Hor)-D-Aph(Cbm)-Lys-Thr-Cys]-D-Tyr-NH2] ({DOTA}-K(Butanoyl(4-(4-I-phenyl)))[Phe(4-Cl)][dC][Phe(4-NH2)](Dihydroorotyl(S))[dPhe(4-NHCONH2)]KTC[dY]-NH2; disulfide 3-8), the IC50 in data set [1] was determined as 80 ± 0.43 nM.

The molecule `COc1ccc(CCCC(=O)NCCCC[C@H](NC(=O)CN2CCN(CC(=O)O)CCN(CC(=O)O)CCN(CC(=O)O)CC2)C(=O)N[C@@H](Cc2ccc(Cl)cc2)C(=O)N[C@@H]2CSSC[C@@H](C(=O)N[C@H](Cc3ccc(O)cc3)C(N)=O)NC(=O)[C@H]([C@@H](C)O)NC(=O)[C@H](CCCCN)NC(=O)[C@@H](Cc3ccc(NC(N)=O)cc3)NC(=O)[C@H](Cc3ccc(NC(=O)[C@@H]4CC(=O)NC(=O)N4)cc3)NC2=O)cc1` [8b, DOTA-Lys(4-(p-methoxyphenyl)butyryl)-Phe(4-Cl)-c[D-Cys-Aph(Hor)-D-Aph(Cbm)-Lys-Thr-Cys]-D-Tyr-NH2] ({DOTA}-K(Butanoyl(4-(4-MeO-phenyl)))[Phe(4-Cl)][dC][Phe(4-NH2)](Dihydroorotyl(S))[dPhe(4-NHCONH2)]KTC[dY]-NH2; disulfide 3-8) yielded an IC50 in data set [1] of 130 ± 0.3 nM.

`C[C@@H](O)[C@@H]1NC(=O)[C@H](CCCCN)NC(=O)[C@@H](Cc2ccc(NC(N)=O)cc2)NC(=O)[C@H](Cc2ccc(NC(=O)[C@@H]3CC(=O)NC(=O)N3)cc2)NC(=O)[C@H](NC(=O)[C@H](Cc2ccc(Cl)cc2)NC(=O)CN2CCN(CC(=O)O)CCN(CC(=O)O)CCN(CC(=O)O)CC2)CSSC[C@@H](C(=O)N[C@H](Cc2ccc(O)cc2)C(N)=O)NC1=O` [JR11, reference compound] ({DOTA}-[Phe(4-Cl)][dC][Phe(4-NH2)](Dihydroorotyl(S))[dPhe(4-NHCONH2)]KTC[dY]-NH2; disulfide 2-7): the IC50 in data set [1] was 2.7 ± 0.26 nM.

One may read the amount remaining as what is left of the initial amount, in per cent. As for `COc1ccc(CCCC(=O)NCCCC[C@H](NC(=O)CN2CCN(CC(=O)O)CCN(CC(=O)O)CCN(CC(=O)O)CC2)C(=O)N[C@@H](Cc2ccc(Cl)cc2)C(=O)N[C@@H]2CSSC[C@@H](C(=O)N[C@H](Cc3ccc(O)cc3)C(N)=O)NC(=O)[C@H]([C@@H](C)O)NC(=O)[C@H](CCCCN)NC(=O)[C@@H](Cc3ccc(NC(N)=O)cc3)NC(=O)[C@H](Cc3ccc(NC(=O)[C@@H]4CC(=O)NC(=O)N4)cc3)NC2=O)cc1` [[^177Lu]Lu-8b, metal not drawn] ({DOTA}-K(Butanoyl(4-(4-MeO-phenyl)))[Phe(4-Cl)][dC][Phe(4-NH2)](Dihydroorotyl(S))[dPhe(4-NHCONH2)]KTC[dY]-NH2; disulfide 3-8), in the data set “Stability in PBS” (1 h), the “Stability in PBS (%) 1 h” value came out at 97.1%. In addition, the “Stability in PBS (%) 4 h” value in “Stability in PBS” (4 h) is given as 96.4%. Further, the “Stability in PBS (%) 24 h” value in “Stability in PBS” (24 h) is listed as 95.4%. In the data set “Stability in mouse serum” (1 h), this molecule gave a fraction remaining at 1 h of 98%. The fraction remaining at 4 h in the data set “Stability in mouse serum” (4 h) is 97.9%. The same molecule yielded a share remaining at 24 h in the data set “Stability in mouse serum” (24 h) of 98.5%. The logD in data set [2] is -2.07 ± 0.02. In “In vivo SPECT/CT imaging”, the tissue uptake per volume at 4 h is 2.7 ± 0.2 %ID/mL, the tissue uptake per volume at 24 h amounted to 1 ± 0.1 %ID/mL, the tissue uptake per volume at 48 h amounted to 0.8 ± 0.1 %ID/mL and the tissue uptake per volume at 72 h is 0.6 ± 0.1 %ID/mL. In data set [3] (4 h post-injection), the “SPECT quantification, kidneys (K), 4 h” value turned out to be 14.8 ± 1.2 % ID/mL. The “SPECT quantification, kidneys (K), 24 h” value in data set [3] (24 h post-injection) is 7.5 ± 0.4 % ID/mL. For the same molecule, the “SPECT quantification, kidneys (K), 48 h” value in data set [3] (48 h post-injection) was 4.3 ± 0.3 % ID/mL. Also, the “SPECT quantification, kidneys (K), 72 h” value in data set [3] (72 h post-injection) turned out to be 3.1 ± 0.5 % ID/mL. Further, the “Protein-Bound Fraction (%)” value on human albumin was 56.3 ± 1.4%.
